Reference: patent US6677368B2, “4-aryl substituted indolinones” (Sugen, Inc., priority 2000, dated 2004)

Target: FGFR1 (Homo sapiens, UniProt P11362)
Experiment: FGFR1 bioassay (ELISA, in vitro kinase activity)
Assay type: biochemical
Conditions: purified GST-FGFR1, poly(Glu-Tyr) substrate
Experimental: This assay is used to measure the in vitro kinase activity of FGF1-R in an ELISA assay.
1. Costar 96-well ELISA plates (Corning Catalog #3369).
2. Poly(Glu-Tyr) (Sigma Catalog #P0275).
4. 50 mM Hepes Buffer Solution.
5. Blocking Buffer (5% BSA/PBS).
6. Purified GST-FGFR1 (SUGEN, Inc.)
7. Kinase Dilution Buffer. Mix 500 μl 1M Hepes (GIBCO), 20 μl 5% BSA/PBS, 10 μl 100 mM sodium orthovanadate and 50 μl 5M NaCl.
9. ATP/MnCl2 phosphorylation mix: mix 20 μL ATP, 400 μL 1M MnCl2 and 9.56 ml dH2O.
10. NUNC 96-well V bottom polypropylene plates (Applied Scientific Catalog #AS-72092).
12. 0.05% TBST Add 500 μL TWEEN to 1 liter TBS.
13. Rabbit polyclonal anti-phosphotyrosine serum (SUGEN, Inc.).
14. Goat anti-rabbit IgG peroxidase conjugate (Biosource, Catalog #ALI0404).
1. Coat Costar 96 well ELISA plates with 1 μg per well Poly(Glu-Tyr) in 100 μl PBS. Store overnight at 4° C.
2. Wash coated plates once with PBS.
3. Add 150 μL of 5%BSA/PBS Blocking Buffer to each well. Incubate, with shaking, for 1 hr at room temperature.
4. Wash plate 2× with PBS, then once with 50 mM Hepes. Pat plates on a paper towel to remove excess liquid and bubbles.
5. Add 25 μL of 0.4 mM test compound in 4% DMSO or 4% DMSO alone (controls) to plate.
6. Dilute purified GST-FGFR1 in Kinase Dilution Buffer (5 ng kinase/50 μl KDB/well).
7. Add 50 μL of diluted kinase to each well.
8. Start kinase reaction by adding 25 μl/well of freshly prepared ATP/Mn++ (0.4 ml 1M MnCl2, 40 μL 10 mM ATP, 9.56 ml dH2O), freshly prepared).
9. Stop reaction with 25 μL of 0.5M EDTA.
10. Wash plate 4× with fresh TBST.
11. Make up Antibody Dilution Buffer: For 50 ml, mix 5 ml of 5% BSA, 250 μl of 5% milk and 50 μl of 100 mM sodium vanadate, bring to final volume with 0.05% TBST.
12. Add 100 μl per well of anti-phosphotyrosine (1:10000 dilution in ADB). Incubate, with shaking for 1 hr. at room temperature.
14. Add 100 μl per well of Biosource Goat anti-rabbit IgG peroxidase conjugate (1:6000 dilution in ADB). Incubate, with shaking for 1 hr. at room temperature.
15. Wash as in step 10 and then with PBS to remove bubbles and excess TWEEN.
16. Add 100 μl of ABTS/H2O2 solution to each well.
17. Incubate, with shaking, for 10 to 20 minutes. Remove any bubbles.
18. Read assay on Dynatech MR7000 ELISA reader: test filter at 410 nM, reference filter at 630 nM.

Chain of FGFR1 (P11362 22-822, species assumed): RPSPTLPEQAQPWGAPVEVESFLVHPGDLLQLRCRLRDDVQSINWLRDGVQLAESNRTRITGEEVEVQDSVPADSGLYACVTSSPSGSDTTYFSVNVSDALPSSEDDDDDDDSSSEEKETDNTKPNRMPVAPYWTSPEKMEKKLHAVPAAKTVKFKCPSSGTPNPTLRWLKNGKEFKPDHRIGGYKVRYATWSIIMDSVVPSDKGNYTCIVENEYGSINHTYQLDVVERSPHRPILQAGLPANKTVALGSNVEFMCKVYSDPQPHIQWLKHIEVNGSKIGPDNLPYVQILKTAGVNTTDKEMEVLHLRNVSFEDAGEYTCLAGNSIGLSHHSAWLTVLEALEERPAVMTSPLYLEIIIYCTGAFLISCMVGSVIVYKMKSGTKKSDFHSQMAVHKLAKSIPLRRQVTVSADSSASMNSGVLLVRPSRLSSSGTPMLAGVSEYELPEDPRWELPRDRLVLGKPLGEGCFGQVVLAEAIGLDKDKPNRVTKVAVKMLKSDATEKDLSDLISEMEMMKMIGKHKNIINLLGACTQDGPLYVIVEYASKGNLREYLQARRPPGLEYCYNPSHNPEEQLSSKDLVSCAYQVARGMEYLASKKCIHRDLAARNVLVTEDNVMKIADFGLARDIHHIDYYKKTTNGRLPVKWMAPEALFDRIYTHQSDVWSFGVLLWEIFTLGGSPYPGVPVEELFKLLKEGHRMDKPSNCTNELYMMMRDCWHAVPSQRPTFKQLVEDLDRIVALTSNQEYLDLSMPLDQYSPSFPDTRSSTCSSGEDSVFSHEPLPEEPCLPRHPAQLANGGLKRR

Row | IC50 [nM] | SMILES
1 | 31 | CCN(CC)CCNC(=O)c1c(C)[nH]c(/C=C2\C(=O)Nc3cccc(-c4ccccc4)c32)c1C [Example 3, 2,4-Dimethyl-5-(2-oxo-4-phenyl-1,2-dihydro-indol-3-ylidenemethyl)-1H-pyrrole-3-carboxylic Acid (2-Diethylamino-ethyl)-amide]
2 | 740 | Cc1[nH]c(/C=C2\C(=O)Nc3cccc(-c4ccc(F)cc4)c32)c(C)c1C(=O)N1CCN(C)CC1 [Example 4, 3-[3,5-Dimethyl-4-(4-methyl-piperazine-1-carbonyl)-1H-pyrrol-2-ylmethylene]-4-(4-fluoro-phenyl)-1,3-dihydro-indol-2-one]
3 | 1540 | Cc1cc(C(=O)N2CC[C@H](N(C)C)C2)c(/C=C2\C(=O)Nc3cccc(-c4ccc(F)cc4)c32)[nH]1 [Example 10, 3-[3-((S)-3-Dimethylamino-pyrrolidine-1-carbonyl)-5-methyl-1H-pyrrol-2-ylmethylene]-4-(4-fluoro-phenyl)-1,3-dihydro-indol-2-one]
4 | 2070 | Cc1[nH]c(/C=C2\C(=O)Nc3cccc(-c4cccc(F)c4)c32)c(C)c1C(=O)NCCn1ccnn1 [Example 15, 5-[4-(3-Fluoro-phenyl)-2-oxo-1,2-dihydro-indol-3-ylidenemethyl]-2,4-dimethyl-1H-pyrrole-3-carboxylic Acid (2-[1,2,3]Triazol-1-yl-ethyl)-amide]
5 | 1150 | Cc1[nH]c(/C=C2\C(=O)Nc3cccc(-c4ccc(Cl)cc4)c32)c(C)c1C(=O)N1CCN(C)CC1 [Example 20, 4-(4-Chloro-phenyl)-3-[3,5-dimethyl-4-(4-methyl-piperazine-1-carbonyl)-1H-pyrrol-2-ylmethylene]-1,3-dihydro-indol-2-one]
6 | 560 | Cc1cc(C(=O)N2CC[C@@H](N(C)C)C2)c(/C=C2\C(=O)Nc3cccc(-c4ccc(Cl)cc4)c32)[nH]1 [Example 25, 4-(4-Chloro-phenyl)-3-[3-((R)-3-dimethylamino-pyrrolidine-1-carbonyl)-5-methyl-1H-pyrrol-2-ylmethylene]-1,3-dihydro-indol-2-one]
7 | 630 | Cc1cc(C(=O)N2C[C@@H](C)N[C@@H](C)C2)c(/C=C2\C(=O)Nc3cccc(-c4ccc(Cl)cc4)c32)[nH]1 [Example 27]
8 | 350 | Cc1cc(C(=O)N2CC[C@H](N(C)C)C2)c(/C=C2\C(=O)Nc3cccc(-c4cccc(Cl)c4)c32)[nH]1 [Example 32, 4-(3-Chloro-phenyl)-3-[3-((S)-3-dimethylamino-pyrrolidine-1-carbonyl)-5-methyl-1H-pyrrol-2-ylmethylene]-1,3-dihydro-indol-2-one]
9 | 500 | Cc1cc(C(=O)NCCn2ccnn2)c(/C=C2\C(=O)Nc3cccc(-c4cccc(Cl)c4)c32)[nH]1 [Example 34, 2-[4-(3-Chloro-phenyl)-2-oxo-1,2-dihydro-indol-3-ylidenemethyl]-5-methyl-1H-pyrrole-3-carboxylic Acid (2-[1,2,3]Triazol-1-yl-ethyl)-amide]
10 | 220 | Cc1cc(C(=O)N2C[C@@H](C)N[C@@H](C)C2)c(/C=C2\C(=O)Nc3cccc(-c4cccc(Cl)c4)c32)[nH]1 [Example 35, 4-(3-Chloro-phenyl)-3-[3-((cis)-3,5-dimethyl-piperazine-1-carbonyl)-5-methyl-1H-pyrrol-2-ylmethylene]-1,3-dihydro-indol-2-one]
11 | 190 | COc1ccc(-c2cccc3c2/C(=C/c2[nH]c(C)c(C(=O)N4C[C@@H](C)N[C@@H](C)C4)c2C)C(=O)N3)cc1 [Example 40, 3-[4-((cis)-3,5-Dimethyl-piperazine-1-carbonyl)-3,5-dimethyl-1H-pyrrol-2-ylmethylene]-4-(4-methoxy-phenyl)-1,3-dihydro-indol-2-one]
12 | 560 | COc1ccc(-c2cccc3c2/C(=C/c2[nH]c(C)cc2C(=O)NCCN2CCCC2)C(=O)N3)cc1 [Example 41, 2-[4-(4-Methoxy-phenyl)-2-oxo-1,2-dihydro-indol-3-ylidenemethyl]-5-methyl-1H-pyrrole-3-carboxylic Acid (2-Pyrrolidin-1-yl-ethyl)-amide]
